# Reference: the supplement of paper PMC10307832
# Key:
# Assay in all cases: relative viability (nuclei count vs DMSO), 5 days (fraction); higher = more cells survive
# [1] = system: NCI-H460
# How it was run: (§1)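 Dosing by pin tool came one day after lung cancer cell lines were seeded in 1536-well plates, using either one drug or a fixed anchor-drug dose plus five library-drug doses (not always all listed) in √10 steps. After 5 days, nuclei were counted on 4× images. Relative viability is treated-well nuclei count divided by vehicle-well nuclei count, and values are medians of duplicate plates.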
# [2] = system: NCI-H1944
# How it was run: as §1
# [3] = system: NCI-H3122
# How it was run: as §1
# [4] = system: NCI-H2170
# How it was run: as §1
# [5] = system: NCI-H1651
# How it was run: as §1
# [6] = system: NCI-H2405
# How it was run: as §1
# [7] = system: LC-2-ad
# How it was run: as §1
# [8] = system: RERF-LC-KJ
# How it was run: as §1
# [9] = system: HCC-78
# How it was run: as §1
# [10] = system: ChaGo-K-1
# How it was run: as §1
# [11] = system: UMC-11
# How it was run: as §1
# [12] = system: NCI-H2228
# How it was run: as §1
# [13] = system: LOU-NH91
# How it was run: as §1
# [14] = system: PC-3 [JPC-3]
# How it was run: as §1
# [15] = system: CAL-12T
# How it was run: as §1
# [16] = system: NCI-H2087
# How it was run: as §1
# [17] = system: NCI-H1755
# How it was run: as §1
# [18] = system: LU99A
# How it was run: as §1
# [19] = system: ABC-1
# How it was run: as §1
# [20] = system: HCC-366
# How it was run: as §1
smiles,measurement,setting,value
Nc1ccn([C@@H]2O[C@H](CO)[C@@H](O)[C@@H]2O)c(=O)n1 [Cytarabine] + C[C@@H](Oc1cc(-c2cnn(C3CCNCC3)c2)cnc1N)c1c(Cl)ccc(F)c1Cl [Crizotinib] (partner 1 µM),relative viability,[1]; first compound 0.005 µM,0.77
same,relative viability,[1]; first compound 0.01581 µM,0.851
same,relative viability,[1]; first compound 0.05 µM,0.144
same,relative viability,[1]; first compound 0.1581 µM,0.0229
same,relative viability,[1]; first compound 0.5 µM,0.0238
same,relative viability,[2]; first compound 0.005 µM,0.9
same,relative viability,[2]; first compound 0.01581 µM,0.466
same,relative viability,[2]; first compound 0.05 µM,0.367
same,relative viability,[2]; first compound 0.1581 µM,0.2
same,relative viability,[2]; first compound 0.5 µM,0.176
same,relative viability,[3]; first compound 0.005 µM,0.264
same,relative viability,[3]; first compound 0.01581 µM,0.239
same,relative viability,[3]; first compound 0.05 µM,0.244
same,relative viability,[3]; first compound 0.1581 µM,0.192
same,relative viability,[3]; first compound 0.5 µM,0.204
same,relative viability,[4]; first compound 0.01581 µM,0.925
same,relative viability,[4]; first compound 0.05 µM,0.912
same,relative viability,[4]; first compound 0.1581 µM,0.605
same,relative viability,[4]; first compound 0.5 µM,0.483
same,relative viability,[5]; first compound 0.005 µM,0.869
same,relative viability,[5]; first compound 0.01581 µM,0.904
same,relative viability,[5]; first compound 0.05 µM,0.834
same,relative viability,[5]; first compound 0.1581 µM,0.584
same,relative viability,[5]; first compound 0.5 µM,0.549
same,relative viability,[6]; first compound 0.005 µM,0.754
same,relative viability,[6]; first compound 0.01581 µM,0.693
same,relative viability,[6]; first compound 0.05 µM,0.592
same,relative viability,[6]; first compound 0.1581 µM,0.464
same,relative viability,[6]; first compound 0.5 µM,0.327
same,relative viability,[7]; first compound 0.005 µM,0.416
same,relative viability,[7]; first compound 0.01581 µM,0.544
same,relative viability,[7]; first compound 0.05 µM,0.453
same,relative viability,[7]; first compound 0.1581 µM,0.341
same,relative viability,[7]; first compound 0.5 µM,0.295
same,relative viability,[8]; first compound 0.005 µM,0.853
same,relative viability,[8]; first compound 0.01581 µM,0.845
same,relative viability,[8]; first compound 0.05 µM,0.759
same,relative viability,[8]; first compound 0.1581 µM,0.502
same,relative viability,[8]; first compound 0.5 µM,0.4
same,relative viability,[9]; first compound 0.005 µM,0.369
same,relative viability,[9]; first compound 0.01581 µM,0.302
same,relative viability,[9]; first compound 0.05 µM,0.282
same,relative viability,[9]; first compound 0.1581 µM,0.26
same,relative viability,[9]; first compound 0.5 µM,0.2
same,relative viability,[10]; first compound 0.005 µM,0.732
same,relative viability,[10]; first compound 0.01581 µM,0.717
same,relative viability,[10]; first compound 0.05 µM,0.521
same,relative viability,[10]; first compound 0.1581 µM,0.383
same,relative viability,[10]; first compound 0.5 µM,0.358
same,relative viability,[11]; first compound 0.005 µM,0.454
same,relative viability,[11]; first compound 0.01581 µM,0.52
same,relative viability,[11]; first compound 0.05 µM,0.336
same,relative viability,[11]; first compound 0.1581 µM,0.267
same,relative viability,[11]; first compound 0.5 µM,0.205
same,relative viability,[12]; first compound 0.005 µM,0.373
same,relative viability,[12]; first compound 0.01581 µM,0.31
same,relative viability,[12]; first compound 0.05 µM,0.218
same,relative viability,[12]; first compound 0.1581 µM,0.124
same,relative viability,[12]; first compound 0.5 µM,0.151
same,relative viability,[13]; first compound 0.005 µM,0.753
same,relative viability,[13]; first compound 0.01581 µM,0.714
same,relative viability,[13]; first compound 0.05 µM,0.637
same,relative viability,[13]; first compound 0.1581 µM,0.511
same,relative viability,[13]; first compound 0.5 µM,0.56
same,relative viability,[14]; first compound 0.005 µM,0.781
same,relative viability,[14]; first compound 0.01581 µM,0.837
same,relative viability,[14]; first compound 0.05 µM,0.78
same,relative viability,[14]; first compound 0.1581 µM,0.712
same,relative viability,[14]; first compound 0.5 µM,0.617
same,relative viability,[15]; first compound 0.005 µM,0.413
same,relative viability,[15]; first compound 0.01581 µM,0.753
same,relative viability,[15]; first compound 0.05 µM,0.703
same,relative viability,[15]; first compound 0.1581 µM,0.511
same,relative viability,[15]; first compound 0.5 µM,0.153
same,relative viability,[16]; first compound 0.005 µM,0.702
same,relative viability,[16]; first compound 0.01581 µM,0.886
same,relative viability,[16]; first compound 0.05 µM,0.69
same,relative viability,[16]; first compound 0.1581 µM,0.731
same,relative viability,[16]; first compound 0.5 µM,0.537
same,relative viability,[17]; first compound 0.005 µM,0.788
same,relative viability,[17]; first compound 0.01581 µM,0.761
same,relative viability,[17]; first compound 0.05 µM,0.565
same,relative viability,[17]; first compound 0.1581 µM,0.265
same,relative viability,[17]; first compound 0.5 µM,0.286
same,relative viability,[18]; first compound 0.005 µM,0.62
same,relative viability,[18]; first compound 0.01581 µM,0.549
same,relative viability,[18]; first compound 0.05 µM,0.517
same,relative viability,[18]; first compound 0.1581 µM,0.527
same,relative viability,[18]; first compound 0.5 µM,0.498
same,relative viability,[19]; first compound 0.005 µM,0.871
same,relative viability,[19]; first compound 0.01581 µM,0.821
same,relative viability,[19]; first compound 0.05 µM,0.925
same,relative viability,[19]; first compound 0.1581 µM,0.717
same,relative viability,[19]; first compound 0.5 µM,0.462
same,relative viability,[20]; first compound 0.005 µM,0.405
same,relative viability,[20]; first compound 0.01581 µM,0.43
same,relative viability,[20]; first compound 0.05 µM,0.216
same,relative viability,[20]; first compound 0.1581 µM,0.026
same,relative viability,[20]; first compound 0.5 µM,0.0284
